The assay concerns the target T1, Full-length glucokinase (beta cell isoform) (Homo sapiens, UniProt P35557).
T1 construct: Full-length glucokinase (beta cell isoform) was His-tagged at N-terminus; His tag (N); made in house
T1 sequence (P35557 1-465): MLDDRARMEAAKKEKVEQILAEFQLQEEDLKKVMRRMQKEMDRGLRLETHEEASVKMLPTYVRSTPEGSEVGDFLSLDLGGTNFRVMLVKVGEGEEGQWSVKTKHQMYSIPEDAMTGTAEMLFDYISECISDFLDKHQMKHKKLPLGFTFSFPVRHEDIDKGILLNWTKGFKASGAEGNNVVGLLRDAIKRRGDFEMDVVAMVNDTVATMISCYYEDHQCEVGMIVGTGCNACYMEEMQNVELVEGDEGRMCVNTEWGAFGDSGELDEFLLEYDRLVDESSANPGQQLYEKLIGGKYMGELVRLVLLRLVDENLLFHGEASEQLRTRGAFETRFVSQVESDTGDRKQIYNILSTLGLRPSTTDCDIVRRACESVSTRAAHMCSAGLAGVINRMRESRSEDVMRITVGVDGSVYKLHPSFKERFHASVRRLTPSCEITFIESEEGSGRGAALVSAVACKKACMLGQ
Description: Glucokinase activation assay (PK/LDH-coupled, NADH depletion at 340 nm). The class given is biochemical. The following applies: 5 mM glucose, 2.5 mM ATP, pH 7.1, room temperature, values given as a range where N>1; for Emax: fitted % max activation, read-out: Maximum Activation. The procedure:
Full-length glucokinase (beta cell isoform) was His-tagged at N-terminus and purified by a Ni column followed by size exclusion chromatography. A 320 mL column was packed in house using Pharmacia Superdex75 preparation grade resin. Glucose was obtained from Calbiochem (San Diego, Calif.) and other reagents were purchased from Sigma (St. Louis, Mo.).
All assays were performed in a Corning 384-well plate using Spectramax PLUS spectrophotometer (Molecular Devices, Sunnyvale, Calif.) at room temperature. The final assay volume was 40 μL. The buffer conditions used in this assay were as follows: 50 mM HEPES, 5 mM glucose, 2.5 mM ATP, 3.5 mM MgCl2, 0.7 mM NADH, 2 mM dithiothreitol, 1 Unit/mL PK/LDH, 0.2 mM phosphoenolpyruvate, and 25 mM KCl. The buffer pH was 7.1. The test compound in DMSO solution was added to the buffer and mixed by a plate shaker for 7.5 minutes. The final concentration of DMSO introduced into the assay was 0.25%.
Glucokinase was added to the buffer mixture to initiate the reaction in the presence and absence of compound. The reaction was monitored by absorbance at 340 nm due to the depletion of NADH. The initial reaction velocity was measured by the slope of a linear time course of 0-300 seconds. The percentage of activation was calculated by the following equation:
% Activation=(Va/Vo−1)×100;
wherein each of Va and Vo is defined as the initial reaction velocity in the presence and absence of the tested compound, respectively.
To determine the EC50 (half maximal effective concentration) and % maximum activation, compounds were serially diluted in DMSO by 3-fold. The GK activities were measured as a function of compound concentrations. The data were fitted to the equation below to obtain the EC50 and % max activation values:
Va/Vo=1+(% max activation/100)/(1+EC50/compound concentration)

Structures can show the parent of a compound that is named as a salt.

In general, EC50 refers to the midpoint of the concentration-response curve. A low value points to higher potency in that assay.

On to `O=C(Nc1cnccn1)[C@H](CC1CCCC1)n1cc(C(F)(F)F)ccc1=O` [Example 8, (S)-3-cyclopentyl-2-(2-oxo-5-(trifluoromethyl)pyridin-1(2H)-yl)-N-(pyrazin-2-yl)propanamide], for which the Emax lay in the range of 110 to 128% and the EC50 fell in the range of 1.7 to 3.2 µM.

For the molecule `Cc1ccc(NC(=O)[C@H](CC2CCCC2)n2cc(C(F)(F)F)ccc2=O)nc1` [Example 6, (S)-3-cyclopentyl-N-(5-methylpyridin-2-yl)-2-(2-oxo-5-(trifluoromethyl)pyridin-1(2H)-yl)propanamide], the Emax is 88 to 105% and the half-maximal effective concentration (EC50) lay in the range of 0.2 to 0.8 µM.

With `Cn1ccc(NC(=O)[C@H](CC2CCOCC2)n2ccc(C(F)(F)F)cc2=O)n1` [Example 43, (S)—N-(1-methyl-1H-pyrazol-3-yl)-2-(2-oxo-4-(trifluoromethyl)pyridin-1(2H)-yl)-3-(tetrahydro-2H-pyran-4-yl)propanamide], the EC50 was above 100 µM.

On to `Cc1cnc(NC(=O)[C@H](CC2CCCC2)n2cnc(C(F)F)cc2=O)cn1` [Example 35, (S)-3-cyclopentyl-2-(4-(difluoromethyl)-6-oxopyrimidin-1(6H)-yl)-N-(5-methylpyrazin-2-yl)propanamide], for which the Emax is 144% and the concentration giving a half-maximal response (EC50) was determined as 45 µM.

For `Cc1ccc(NC(=O)[C@H](CC2CCCC2)n2cnc(C(F)F)cc2=O)nc1` [Example 36, (S)-3-cyclopentyl-2-(4-(difluoromethyl)-6-oxopyrimidin-1(6H)-yl)-N-(5-methylpyridin-2-yl)propanamide], the Emax is 106% and a half-maximal effect (EC50) was put at 8.1 µM.

As for `CC(C)(O)Cn1ccc(NC(=O)[C@H](CC2CCCC2)n2ccc(C(F)(F)F)cc2=O)n1` [Example 32, (S)-3-cyclopentyl-N-(1-(2-hydroxy-2-methylpropyl)-1H-pyrazol-3-yl)-2-(2-oxo-4-(trifluoromethyl)pyridin-1(2H)-yl)propanamide], the Emax was in the range of 87 to 90% and the EC50 was in the range of 6.9 to 7.5 µM.

With `O=C(O)c1ccc(NC(=O)[C@H](CC2CCCC2)n2cc(C(F)(F)F)ccc2=O)nc1` [Example 28, (S)-6-(3-cyclopentyl-2-(2-oxo-5-(trifluoromethyl)pyridin-1(2H)-yl)propanamido)nicotinic acid mono acetic acid salt], the Emax came to 147% and the EC50 amounted to 0.5 µM.

Consider `Cc1ccc(NC(=O)[C@H](CC2CCCC2)n2cnc(C(F)(F)F)cc2=O)nc1` [Example 23, (S)-3-cyclopentyl-N-(5-methylpyridin-2-yl)-2-(6-oxo-4-(trifluoromethyl)pyrimidin-1(6H)-yl)propanamide], for which the Emax was found to be 77% and the EC50 is 2.6 µM.

As for `O=C(O)c1ccc(NC(=O)[C@H](CC2CCCCC2)n2ccc(C(F)(F)F)cc2=O)nc1` [Example 37, (S)-6-(3-cyclohexyl-2-(2-oxo-4-(trifluoromethyl)pyridin-1(2H)-yl)propanamido)nicotinic acid], the Emax lay within 92 to 101% and the EC50 fell in the range of 1.5 to 3.5 µM.

For the molecule `Cc1ccc(NC(=O)[C@H](CC2CCOCC2)n2ccc(C(F)(F)F)cc2=O)nc1` [Example 41, (S)—N-(5-methylpyridin-2-yl)-2-(2-oxo-4-(trifluoromethyl)pyridin-1(2H)-yl)-3-(tetrahydro-2H-pyran-4-yl)propanamide], the concentration giving a half-maximal response (EC50) is above 100 µM.

As to `Cc1ccc(NC(=O)[C@H](CC2CCCC2)n2ccc(C(F)(F)F)cc2=O)nc1` [Example 3, (S)-3-cyclopentyl-N-(5-methylpyridin-2-yl)-2-(2-oxo-4-(trifluoromethyl)pyridin-1(2H)-yl)propanamide], the Emax fell in the range of 55 to 79% and the EC50 is 1 to 2.5 µM.

On to `O=C(Nc1ccn(Cc2ccccc2)n1)[C@H](CC1CCCC1)n1ccc(C(F)(F)F)cc1=O` [Example 30, (S)—N-(1-benzyl-1H-pyrazol-3-yl)-3-cyclopentyl-2-(2-oxo-4-(trifluoromethyl)pyridin-1(2H)-yl)propanamide], for which the Emax was 58% and a half-maximal effect (EC50) was put at 4.2 µM.

`Cc1cnc(NC(=O)[C@H](CC2CCCC2)n2ccc(C(F)(F)F)cc2=O)cn1` [Example 1, (S)-3-cyclopentyl-N-(5-methylpyrazin-2-yl)-2-(2-oxo-4-(trifluoromethyl)pyridin-1(2H)-yl)propanamide]: the Emax lay within 76 to 100% and the EC50 was in the range of 5 to 10.5 µM.

With `O=C(Nc1ncccn1)[C@H](CC1CCCC1)n1cc(C(F)(F)F)ccc1=O` [Example 12, (S)-3-cyclopentyl-2-(2-oxo-5-(trifluoromethyl)pyridin-1(2H)-yl)-N-(pyrimidin-2-yl)propanamide], the Emax lay within 109 to 110% and the half-maximal effective concentration (EC50) is 13.6 to 20.8 µM.

In the case of `Cn1ccc(NC(=O)[C@H](CC2CCOCC2)n2cc(C(F)(F)F)ccc2=O)n1` [Example 40, (S)—N-(1-methyl-1H-pyrazol-3-yl)-2-(2-oxo-5-(trifluoromethyl)pyridin-1(2H)-yl)-3-(tetrahydro-2H-pyran-4-yl)propanamide], the Emax came out at 121% and the midpoint of the response, the EC50, lay at 54 µM.

Regarding `O=C(Nc1ccccn1)[C@H](CC1CCCC1)n1cc(C(F)(F)F)ccc1=O` [Example 21, (S)-3-cyclopentyl-2-(2-oxo-5-(trifluoromethyl)pyridin-1(2H)-yl)-N-(pyridin-2-yl)propanamide], the Emax was 113% and the midpoint of the response, the EC50, lay at 0.3 µM.

Take `Cc1cnc(NC(=O)[C@H](CC2CCCC2)n2cc(C(F)(F)F)ccc2=O)cn1` [Example 7, (S)-3-cyclopentyl-N-(5-methylpyrazin-2-yl)-2-(2-oxo-5-(trifluoromethyl)pyridin-1(2H)-yl)propanamide]: the Emax lay in the range of 118 to 152% and the EC50 is 1.6 to 3.7 µM.

With `O=C(Nc1ccn(Cc2ccccc2)n1)[C@H](CC1CCCC1)n1cc(C(F)(F)F)ccc1=O` [Example 11, (S)—N-(1-benzyl-1H-pyrazol-3-yl)-3-cyclopentyl-2-(2-oxo-5-(trifluoromethyl)pyridin-1(2H)-yl)propanamide], the Emax fell in the range of 108 to 141% and the concentration giving a half-maximal response (EC50) was 0.7 to 1.3 µM.

In the case of `Cn1ccc(NC(=O)[C@H](CC2CCCC2)n2ccc(C(F)(F)F)cc2=O)n1` [Example 4, (S)-3-cyclopentyl-N-(1-methyl-1H-pyrazol-3-yl)-2-(2-oxo-4-(trifluoromethyl)pyridin-1(2H)-yl)propanamide], the Emax lay within 72 to 106% and the EC50 was 4.6 to 22.4 µM.

The values above are taken from patent US20110130365A1, “Fluorinated Heteroaryls” (priority 2008, published 2011).
